The text below walks through data of patent publication US10131653B2, “Heterocyclic compound” (TAKEDA PHARMACEUTICAL COMPANY LIMITED, priority 2015, dated 2018).

Where a name gives a salt, the structure may show the parent alone.

In assay [1] the target is T1, human OX1 receptor (Homo sapiens, UniProt O43613).
T1 construct: expressed in transfected cells; host or cells: CHO cells
T1 sequence (O43613 1-425): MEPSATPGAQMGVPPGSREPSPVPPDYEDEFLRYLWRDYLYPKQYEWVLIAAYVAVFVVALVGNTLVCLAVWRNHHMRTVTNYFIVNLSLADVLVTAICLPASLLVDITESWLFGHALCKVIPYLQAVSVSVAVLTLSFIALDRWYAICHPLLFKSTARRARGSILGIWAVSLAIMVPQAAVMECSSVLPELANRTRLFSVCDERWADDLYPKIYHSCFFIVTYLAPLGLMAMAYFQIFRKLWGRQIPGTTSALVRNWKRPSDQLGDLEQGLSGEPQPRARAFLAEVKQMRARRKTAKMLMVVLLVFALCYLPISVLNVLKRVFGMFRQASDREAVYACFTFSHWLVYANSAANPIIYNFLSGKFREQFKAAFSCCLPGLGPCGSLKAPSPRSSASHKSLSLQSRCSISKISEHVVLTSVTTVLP
Kind of assay: Measurement of orexin receptor antagonistic activity (calcium fluorescence, FLIPRtetra). To be noted: CHO, 10 μM test compound; CHO cells expressing human OX1 receptor; OX-A 1 nM; read-out: Human Orexin1 receptor inhibition (at 10 μM). It counts as cell-based. The protocol:
(§1) Measurement of Orexin Receptor Antagonistic Activity
(§2) CHO cells forcibly expressing human OX1 receptor or human OX2 receptor were seeded in each well of 384 well black transparent bottom plate (BD Falcon) at 7,500 cells/well, and cultured for one day in a 5% CO2 incubator at 37° C. […] The plate was stood for 30 min in a 5% CO2 incubator at 37° C., and further stood at room temperature for 30 min. A test compound prepared by diluting with assay buffer B (HBSS, 20 mM HEPES, 0.1% BSA) was added at 10 μL/well, and then OX-A (OX1 receptor, final concentration; 1 nM) or OX-A (OX2 receptor, final concentration; 0.3 nM) was added at 10 μL/well, and the fluorescence value was measured by FLIPRtetra (Molecular Devices) every one sec for 2 min.

Assay [2] deals with T2, human OX2 receptor (Homo sapiens, UniProt O43614).
T2 construct: expressed in transfected cells; host or cells: CHO cells
T2 sequence (O43614 1-444): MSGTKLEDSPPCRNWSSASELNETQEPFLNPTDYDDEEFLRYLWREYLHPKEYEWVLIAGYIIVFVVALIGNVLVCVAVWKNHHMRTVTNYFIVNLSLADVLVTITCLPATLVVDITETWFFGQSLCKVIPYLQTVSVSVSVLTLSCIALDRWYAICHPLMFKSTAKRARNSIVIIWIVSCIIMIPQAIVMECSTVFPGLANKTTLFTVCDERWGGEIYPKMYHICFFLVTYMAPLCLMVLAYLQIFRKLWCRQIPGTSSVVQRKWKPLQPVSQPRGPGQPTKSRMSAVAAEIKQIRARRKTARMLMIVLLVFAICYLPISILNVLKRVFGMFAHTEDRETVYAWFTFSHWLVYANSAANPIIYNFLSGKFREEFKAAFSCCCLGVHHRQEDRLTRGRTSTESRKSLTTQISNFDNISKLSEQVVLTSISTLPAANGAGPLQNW
Described as above. It is filed as cell-based. Particulars: CHO, 10 μM test compound; CHO cells expressing human OX2 receptor; OX-A 0.3 nM; read-out: Human Orexin2 receptor inhibition (at 10 μM). The protocol: as §1, §2

On to `Cc1cc(N2CCN(C(=O)c3ccccc3-c3nccs3)CCO2)nc(C)n1` [Example 29, (2-(2,6-dimethyl-pyrimidin-4-yl)-1,2,5-oxadiazepan-5-yl) (2-(1,3-thiazol-2-yl)phenyl) methanone], for which the inhibition at 10 µM stood at 88% in assay [1] and 100% in assay [2].

With `Cc1cc(N2CCN(C(=O)c3ccccc3-n3cccn3)CCO2)nc(C)n1` [Example 30, (2-(2,6-dimethyl-pyrimidin-4-yl)-1,2,5-oxadiazepan-5-yl) (2-(1H-pyrazol-1-yl)phenyl) methanone], the inhibition at 10 µM in assay [1] was determined as 1%; in assay [2], 101%.

Consider `Cc1cc(N2CCN(C(=O)c3ccccc3-n3ncnn3)CCO2)nc(C)n1` [Example 31, (2-(2,6-dimethyl-pyrimidin-4-yl)-1,2,5-oxadiazepan-5-yl) (2-(2H-tetrazol-2-yl)phenyl) methanone], for which the inhibition at 10 µM was -2% in assay [1] and 100% in assay [2].

In the case of `Cc1cc(N2CCN(C(=O)c3ccccc3-c3cncs3)CCO2)nc(C)n1` [Example 32, (2-(2,6-dimethyl-pyrimidin-4-yl)-1,2,5-oxadiazepan-5-yl) (2-(1,3-thiazol-5-yl)phenyl) methanone], the inhibition at 10 µM in assay [1] amounted to 38%; in assay [2], 96%.

Regarding `Cc1ccc(-n2nccn2)c(C(=O)N2CCON(c3cccc(C)n3)CC2)c1` [Example 33, (2-(6-methylpyridin-2-yl)-1,2,5-oxadiazepan-5-yl)(5-methyl-2-(2H-1,2,3-triazol-2-yl)phenyl)methanone], the inhibition at 10 µM in assay [1] amounted to 44%; in assay [2], 99%.

Regarding `Cc1cc(C)nc(N2CCN(C(=O)c3cc(C)ccc3-n3nccn3)CCO2)c1` [Example 34, (2-(4,6-dimethylpyridin-2-yl)-1,2,5-oxadiazepan-5-yl)(5-methyl-2-(2H-1,2,3-triazol-2-yl)phenyl)methanone], the inhibition at 10 µM was 97% in assay [1] and 99% in assay [2].

For the compound `Cc1ccc(-n2nccn2)c(C(=O)N2CCON(c3cc(C)nc(C)c3)CC2)c1` [Example 35, (2-(2,6-dimethylpyridin-4-yl)-1,2,5-oxadiazepan-5-yl)(5-methyl-2-(2H-1,2,3-triazol-2-yl)phenyl)methanone], the inhibition at 10 µM in assay [1] was -4%; in assay [2], 5%.

As for `COc1cccc(N2CCN(C(=O)c3ccccc3-c3nccs3)CCO2)n1` [Example 36, (2-(6-methoxypyridin-2-yl)-1,2,5-oxadiazepan-5-yl)(2-(1,3-thiazol-2-yl)phenyl)methanone], the results for the inhibition at 10 µM in assay [1] and in assay [2] were 67% and 100%, respectively.

In the case of `COc1cc(N2CCN(C(=O)c3ccccc3-c3nccs3)CCO2)ccn1` [Example 37, (2-(2-methoxypyridin-4-yl)-1,2,5-oxadiazepan-5-yl)(2-(1,3-thiazol-2-yl)phenyl)methanone], the inhibition at 10 µM is 19% in assay [1] and 85% in assay [2].

As to `Cc1ccc(-n2nccn2)c(C(=O)N2CCON(c3ncc4ccccc4n3)CC2)c1` [Example 38, (5-methyl-2-(2H-1,2,3-triazol-2-yl)phenyl)(2-(quinazolin-2-yl)-1,2,5-oxadiazepan-5-yl)methanone], the inhibition at 10 µM in assay [1] is 92%; in assay [2] it was 90%.

Turning to `Cc1ccc(-n2nccn2)c(C(=O)N2CCON(c3nc4ccc(Cl)cc4o3)CC2)c1` [Example 39, (2-(6-chloro-1,3-benzoxazol-2-yl)-1,2,5-oxadiazepan-5-yl)(5-methyl-2-(2H-1,2,3-triazol-2-yl)phenyl)methanone], the results for the inhibition at 10 µM in assay [1] and in assay [2] were 100% and 98%, respectively.

As to `Cc1cc(N2CCN(C(=O)c3cc(C4CCC4)ccc3-n3nccn3)CCO2)nc(C)n1` [Example 41, (5-cyclobutyl-2-(2H-1,2,3-triazol-2-yl)phenyl)(2-(2,6-dimethylpyrimidin-4-yl)-1,2,5-oxadiazepan-5-yl)methanone], the inhibition at 10 µM in assay [1] is 10%; in assay [2] it was 56%.

For the compound `Cc1cc(N2CCN(C(=O)c3ccccc3-c3ncccn3)CCO2)nc(C)n1` [Example 42, (2-(2,6-dimethylpyrimidin-4-yl)-1,2,5-oxadiazepan-5-yl)(2-(pyrimidin-2-yl)phenyl)methanone], the inhibition at 10 µM was 41% in assay [1] and 101% in assay [2].

Regarding `Cc1cc(N2CCN(C(=O)c3ccccc3-c3ccccn3)CCO2)nc(C)n1` [Example 43, (2-(2,6-dimethylpyrimidin-4-yl)-1,2,5-oxadiazepan-5-yl)(2-(pyridin-2-yl)phenyl)methanone hydrochloride], the results for the inhibition at 10 µM in assay [1] and in assay [2] were 35% and 91%, respectively.

For `Cc1cc(N2CCN(C(=O)c3cc(C#N)ccc3-n3nccn3)CCO2)nc(C)n1` [Example 44, 3-((2-(2,6-dimethylpyrimidin-4-yl)-1,2,5-oxadiazepan-5-yl)carbonyl)-4-(2H-1,2,3-triazol-2-yl)benzonitrile], the inhibition at 10 µM in assay [1] was -16%; in assay [2], 103%.

Regarding `Cc1cc(C)nc(N2CCN(C(=O)c3ccccc3C#N)CCO2)n1` [Example 45, 2-((2-(4,6-dimethylpyrimidin-2-yl)-1,2,5-oxadiazepan-5-yl)carbonyl)benzonitrile], the inhibition at 10 µM in assay [1] is 16%; in assay [2] it was 19%.

For `Cc1cc(C)nc(N2CCN(C(=O)c3ccccc3)CCO2)n1` [Example 46, (2-(4,6-dimethylpyrimidin-2-yl)-1,2,5-oxadiazepan-5-yl) (phenyl)methanone], the inhibition at 10 µM in assay [1] is 4%; in assay [2], 36%.

As for `COc1cccc(OC)c1C(=O)N1CCON(c2nc(C)cc(C)n2)CC1` [Example 47, (2,6-dimethoxyphenyl) (2-(4,6-dimethylpyrimidin-2-yl)-1,2,5-oxadiazepan-5-yl)methanone], the values for the inhibition at 10 µM in assay [1] and in assay [2] were 23% and 97%, respectively.

Regarding `COc1cccc(F)c1C(=O)N1CCON(c2nc(C)cc(C)n2)CC1` [Example 48, (2-(4,6-dimethylpyrimidin-2-yl)-1,2,5-oxadiazepan-5-yl) (2-fluoro-6-methoxyphenyl) methanone], the inhibition at 10 µM in assay [1] stood at 10%; in assay [2] it was 73%.

For `Cc1cc(C)nc(N2CCN(C(=O)c3cccc(C#N)c3)CCO2)n1` [Example 49, 3-((2-(4,6-dimethylpyrimidin-2-yl)-1,2,5-oxadiazepan-5-yl)carbonyl) benzonitrile], the inhibition at 10 µM in assay [1] was 9%; in assay [2], 14%.

As for `Cc1cc(C)nc(N2CCN(C(=O)c3ccc(C#N)cc3)CCO2)n1` [Example 50, 4-((2-(4,6-dimethylpyrimidin-2-yl)-1,2,5-oxadiazepan-5-yl)carbonyl) benzonitrile], the inhibition at 10 µM in assay [1] was 3%; in assay [2], -3%.

For the compound `COc1ccccc1C(=O)N1CCON(c2nc(C)cc(C)n2)CC1` [Example 51], the figures for the inhibition at 10 µM in assay [1] and in assay [2] were 22% and 68%, respectively.

Consider `COc1ccc(Cl)c(C(=O)N2CCON(c3nc(C)cc(C)n3)CC2)c1` [Example 52, (2-chloro-5-methoxyphenyl) (2-(4,6-dimethylpyrimidin-2-yl)-1,2,5-oxadiazepan-5-yl)methanone], for which the figures for the inhibition at 10 µM in assay [1] and in assay [2] were 16% and 96%, respectively.

As to `Cc1cc(C)nc(N2CCN(C(=O)c3ccccc3Cl)CCO2)n1` [Example 53, (2-chlorophenyl) (2-(4,6-dimethylpyrimidin-2-yl)-1,2,5-oxadiazepan-5-yl)methanone], the inhibition at 10 µM was 9% in assay [1] and 57% in assay [2].

For `Cc1cc(C)nc(N2CCN(C(=O)c3cc(Cl)ccc3Cl)CCO2)n1` [Example 54, (2,5-dichlorophenyl) (2-(4,6-dimethylpyrimidin-2-yl)-1,2,5-oxadiazepan-5-yl)methanone], the inhibition at 10 µM stood at 16% in assay [1] and 84% in assay [2].

With `Cc1cc(C)nc(N2CCN(C(=O)c3cccc(Cl)c3Cl)CCO2)n1` [Example 55, (2,3-dichlorophenyl) (2-(4,6-dimethylpyrimidin-2-yl)-1,2,5-oxadiazepan-5-yl)methanone], the inhibition at 10 µM in assay [1] amounted to 18%; in assay [2], 96%.
